Experimental data: paper PMC6433648 (British Journal of Pharmacology, 2019)

Experiments:
[1] = target: T1, rat Nluc‐A1AR (Rattus norvegicus, UniProt P25099); assay: NanoBRET competition binding: inhibition of specific binding of CA200645
T1 sequence (P25099 2-326 limits assumed): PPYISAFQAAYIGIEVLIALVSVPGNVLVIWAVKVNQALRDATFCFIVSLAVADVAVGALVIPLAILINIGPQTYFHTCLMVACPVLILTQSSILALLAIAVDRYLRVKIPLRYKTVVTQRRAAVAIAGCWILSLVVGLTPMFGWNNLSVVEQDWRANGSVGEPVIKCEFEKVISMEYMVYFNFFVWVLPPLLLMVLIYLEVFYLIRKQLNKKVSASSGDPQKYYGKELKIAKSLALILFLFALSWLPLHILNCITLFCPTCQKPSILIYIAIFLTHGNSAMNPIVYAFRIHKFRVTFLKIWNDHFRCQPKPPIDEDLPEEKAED
Procedure: (§2) The fluorescent antagonist saturation, competition‐binding, allosteric modulator binding cooperativity, and the fluorescent agonist saturations in the presence/absence of allosteric modulator assays were performed on the stably transfected HEK293T cells expressing human or rat Nluc‐A1R. The cells were seeded 24 hr before experimentation in white walled, poly‐D‐lysine coated 96‐well microplates (Thermo Scientific, Loughborough, UK) at a density of 25,000 cells per well.
(§3) For each experiment, ligands were added simultaneously, and the 96‐well plate was incubated for 1 hr at 37°C (no CO2). Following this, the Nluc substrate furimazine (Promega) was added to give a final concentration of 10 μM and then incubated for 5 min at 37°C. For all experiments, the luminescence and resulting BRET were measured using the PHERAstar FS plate reader (BMG Labtech) using filtered light emissions at 460 nm (80 nm bandpass) and >610 nm (longpass) at room temperature. The raw BRET ratio was calculated by dividing the >610 nm emission by the 460 nm emission.

[2] = target: T2, human Nluc‐A1AR (Homo sapiens, UniProt P30542); assay: Fluorescent agonist saturation binding in presence/absence of allosteric modulator (NanoBRET); design: expressed in transfected cells; key to B max: Bmax expressed as BRET ratio from saturation fit; details: Human Nluc A1R
T2 sequence (P30542 2-326 limits assumed): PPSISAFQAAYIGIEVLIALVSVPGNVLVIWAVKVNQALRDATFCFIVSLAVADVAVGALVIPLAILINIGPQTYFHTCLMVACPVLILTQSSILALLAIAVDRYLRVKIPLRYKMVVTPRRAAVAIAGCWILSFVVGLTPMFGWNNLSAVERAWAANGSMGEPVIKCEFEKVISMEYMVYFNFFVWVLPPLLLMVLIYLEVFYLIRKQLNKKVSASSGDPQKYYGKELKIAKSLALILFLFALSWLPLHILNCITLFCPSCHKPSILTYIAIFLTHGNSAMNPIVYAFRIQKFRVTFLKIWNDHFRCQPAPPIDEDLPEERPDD
From the text: (§1) Pooled fluorescent agonist saturation assays obtained in the presence and absence of a fixed concentration of allosteric modulator were simultaneously fitted to the following equation: BRET ratio=Bmax×B/B+KD+M×B+C.

[3] = target: T1, rat Nluc‐A1AR; assay: as above; design: expressed in transfected cells; key to B max: Bmax expressed as BRET ratio from saturation fit; details: Rat Nluc A1R
From the text: as §1

[4] = target: T2, human Nluc‐A1AR; assay: NanoBRET competition binding: inhibition of specific binding of CA200645; design: expressed in transfected cells; details: for concentrations producing a small direct inhibition of CA200645 binding: more evident at the human A1‐receptor; for IC50: Nluc‐human A1AR, 25 nM CA200645, HEK293T cells; for Ki: read-out: pK i ± SEM (converted)
From the text: The IC50 values from competition‐binding curves were used to calculate the K i of the unlabelled ligands using the Cheng–Prusoff equation: Ki=IC50/1+L/KD, where [L] is the concentration of fluorescent ligand in nM, and K D is the dissociation constant of the fluorescent ligand in nM. The K D values used were obtained from the saturation‐binding experiments.

[5] = test system: human A1‐receptors; design: method as in May et al., 2010; details: PD 81,723 10 μM, CHO cells; ref May et al., 2010; cited from earlier work
[6] = target: T1, rat Nluc‐A1AR; assay: cell-based; details: agonist pIC50, Rat, 25 nM CA200645
Procedure: as §2, §3

[7] = target: T2, human Nluc‐A1AR; assay: cell-based
Procedure: as §2, §3

[8] = VCP171 0 (control), maximal specific binding (BRET ratio fit)

Which results are given for `Nc1sc(-c2ccc(C(=O)NCCCCCCNc3ncnc4c3ncn4[C@@H]3O[C@H](CO)[C@@H](O)[C@H]3O)cc2)c(-c2cccc(C(F)(F)F)c2)c1C(=O)c1ccccc1` [VCP746, 4‐(5‐amino‐4‐benzoyl‐3‐(3‐(trifluoromethyl)phenyl)thiophen‐2‐yl)‐N‐(6‐(9‐((2R,3R,4S,5R)‐3,4‐dihydroxy‐5‐(hydroxylmethyl)tetrahydro‐furan‐2‐yl)‐9H‐purin‐6‐ylamino)hexyl)benzamide]?
IC50 [1]: 17400 nM; Ki [1]: 9550 nM

Which results are given for `O=C(CCCCCNC(=O)COc1ccc(/C=C/C2=[N+]3C(=Cc4ccc(-c5cccs5)n4[B-]3(F)F)C=C2)cc1)NCCCCNc1ncnc2c1ncn2[C@@H]1O[C@H](CO)[C@@H](O)[C@H]1O` [ABA‐X‐BY630]?
B max ([2]; PD 81,723 0 (control)): 0.019 ± 0.002; Kd ([2]; VCP171 0 (control)): 589 nM; B max [2, 8]: 0.019 ± 0.002; B max ([2]; with 10 μM PD 81,723): 0.035 ± 0.005; B max ([2]; with 10 μM VCP171): 0.033 ± 0.004; B max ([2]; with 30 μM PD 81,723): 0.035 ± 0.008; B max ([2]; with 30 μM VCP171): 0.036 ± 0.003; B max ([3]; PD 81,723 0 (control)): 0.031 ± 0.002; Kd ([3]; PD 81,723 0 (control)): 955 nM; Kd ([3]; VCP171 0 (control)): 891 nM; B max [3, 8]: 0.031 ± 0.014; B max ([3]; with 10 μM PD 81,723): 0.040 ± 0.005; B max ([3]; with 10 μM VCP171): 0.048 ± 0.009; B max ([3]; with 30 μM PD 81,723): 0.054 ± 0.007; B max ([3]; with 30 μM VCP171): 0.072 ± 0.021

For `Cc1sc(N)c(C(=O)c2cccc(C(F)(F)F)c2)c1C` [PD 81,723, (2‐amino‐4,5‐dimethylthiophen‐3‐yl)(3‐(trifluoromethyl)phenyl)methanone], which “concentrations producing a small direct inhibition of CA200645 binding” value [4] is on record?
Its value is > 100 µM.

And the IC50 [1]?
Its IC50 is > 100000 nM.

What about the “effect on dissociation of BY630‐ABA” value [5] of the same molecule?
Its value is “slow the dissociation”.

Which IC50 [1] does the source give for `O=C(Cc1ccccc1)Nc1nc2ccc(Cl)cc2c2nc(-c3ccco3)nn12` [MRS1220, N‐[9‐chloro‐2‐(furan‐2‐yl)‐[1,2,4]triazolo[1,5‐c]quinazolin‐5‐yl]‐2‐phenylacetamide] here?
The IC50 was 1950 nM.

And the Ki [1]?
Its Ki is 1070 nM.

Which results are given for `Nc1scc(-c2cccc(C(F)(F)F)c2)c1C(=O)c1ccccc1` [VCP171, (2‐amino‐4‐(3‐(trifluoromethyl)phenyl)thiophen‐3‐yl)(phenyl)methanone]?
IC50 [4]: 40700 nM; concentrations producing a small direct inhibition of CA200645 binding [4]: 10 to 100 µM; Ki [4]: 23400 nM; IC50 [1]: 129000 nM; Ki [1]: 70800 nM

With `CCNC(=O)[C@H]1O[C@@H](n2cnc3c(NCCCCNC(=O)CCCCCNC(=O)COc4ccc(/C=C/C5=[N+]6C(=Cc7ccc(-c8cccs8)n7[B-]6(F)F)C=C5)cc4)ncnc32)[C@H](O)[C@@H]1O` [ABEA‐X‐BY630] as the molecule, how does the B max ([2]; PD 81,723 0 (control)) read?
The B max was 0.007 ± 0.001.

What about the Kd ([2]; PD 81,723 0 (control)) of the same molecule?
Its Kd is 977 nM.

What about the Kd ([2]; VCP171 0 (control)) of the same molecule?
The Kd was 1020 nM.

What about the B max [2, 8] of the same molecule?
The B max was 0.006 ± 0.001.

And the B max ([2]; with 10 μM PD 81,723)?
The B max was 0.012 ± 0.003.

And the B max ([2]; with 10 μM VCP171)?
The B max was 0.013 ± 0.002.

What about the B max ([2]; with 30 μM PD 81,723) of the same molecule?
Its B max is 0.016 ± 0.004.

And the B max ([2]; with 30 μM VCP171)?
Its B max is 0.016 ± 0.002.

And the B max ([3]; PD 81,723 0 (control))?
The B max was 0.015 ± 0.002.

And the Kd ([3]; PD 81,723 0 (control))?
Its Kd is 1820 nM.

And the Kd ([3]; VCP171 0 (control))?
Its Kd is 891 nM.

What about the B max [3, 8] of the same molecule?
The B max was 0.010 ± 0.001.

What about the B max ([3]; with 10 μM PD 81,723) of the same molecule?
Its B max is 0.018 ± 0.002.

What about the B max ([3]; with 10 μM VCP171) of the same molecule?
The B max was 0.021 ± 0.002.

What about the B max ([3]; with 30 μM PD 81,723) of the same molecule?
Its B max is 0.032 ± 0.01.

What about the B max ([3]; with 30 μM VCP171) of the same molecule?
The B max was 0.026 ± 0.003.

For `N#Cc1c(N)nc(SCc2csc(-c3ccc(Cl)cc3)n2)c(C#N)c1-c1ccc(OCCO)cc1` [Capadenoson, 2‐amino‐6‐[[2‐(4‐chlorophenyl)‐1,3‐thiazol‐4‐yl]methylsulfanyl]‐4‐[4‐(2‐hydroxyethoxy)phenyl]pyridine‐3,5‐dicarbonitrile], which IC50 [4] is on record?
The IC50 was 245 nM.

And the Ki [4]?
Its Ki is 141 nM.

What about the IC50 [1] of the same molecule?
Its IC50 is 186 nM.

What about the Ki [1] of the same molecule?
Its Ki is 102 nM.

What about the IC50 ([6]; PD 81,723 0 (control)) of the same molecule?
The IC50 was 275 nM.

And the IC50 ([6]; VCP171 0 (control))?
Its IC50 is 251 nM.

And the IC50 [7]?
The IC50 was 282 nM.
